Results: patent US20210253651A1, “METHOD FOR PRODUCING ORGANIC COMPOUND-ENCAPSULATING FERRITIN” (Ajinomoto Co., Inc., priority 2018, published 2021)

Tests used:
FTH ferritin [1] = target: T1, FTH ferritin (Homo sapiens, UniProt P02794); assay: ratio of amounts incorporated, one-step vs disassembly-reassembly process; format: physicochemical
T1 construct: made in house; host or cells: Escherichia coli BL21 (DE3), plasmid pET20-FTH
Protocol: As a control, some of small molecule agents listed in Table 1 was incorporated into ferritin also at the disassembly-reassembly process. […] Then, 10 μL of 1M Tris-HCl buffer (pH 9.0) was added for neutralization, and the resulting solution was left to stand for 15 minutes at room temperature. After the standing, 0.5 mL of water was added. After the resulting solution was centrifuged (at 15,000 rpm for one minute), the supernatant was injected into the desalting column PD-10 (Sephadex G-25 filled product, GE Healthcare Inc.) equilibrated with 10 mM Tris-HCl buffer (pH 8) to separate the protein from a reagent that was not encapsulated. […]
The absorbances were measured using spectrophotometer (DU-800, Beckman Coulter Inc.) for these solutions, and the concentration of contained protein was determined using the protein assay CBB solution (Nacalai Tesque, Inc.) as well as bovine albumin as a standard. Absorbances at 280 nm and 480 nm were measured for Rhodamine B and Congo Red. […] Then, after the absorbances were calibrated based on the absorbances that were derived from the proteins and presumed by the amount of contained protein quantified using the protein assay CBB solution, the concentrations of small molecule agents were determined based on the calibration curves obtained by the absorbances of the molecules. […]

FTH ferritin [2] = target: T1, FTH ferritin; assay: one-step process incorporation of small molecule agents into FTH ferritin; format: physicochemical; conditions: for Incorporation efficiency (wt %) / Number of agent incorporated: 60 min
Protocol: All of the reactions were performed in 0.1 mL volume. […] The absorbances were measured using spectrophotometer (DU-800, Beckman Coulter Inc.) for these solutions, and the concentration of contained protein was determined using the protein assay CBB solution (Nacalai Tesque, Inc.) as well as bovine albumin as a standard. Absorbances at 280 nm and 480 nm were measured for Rhodamine B and Congo Red. […] Then, after the absorbances were calibrated based on the absorbances that were derived from the proteins and presumed by the amount of contained protein quantified using the protein assay CBB solution, the concentrations of small molecule agents were determined based on the calibration curves obtained by the absorbances of the molecules. […] As a result, the one-step process enabled incorporating also the small molecule agents with different physical properties such as molecular weight and pKa simply and easily.

T1 sequence (P02794 whole entry): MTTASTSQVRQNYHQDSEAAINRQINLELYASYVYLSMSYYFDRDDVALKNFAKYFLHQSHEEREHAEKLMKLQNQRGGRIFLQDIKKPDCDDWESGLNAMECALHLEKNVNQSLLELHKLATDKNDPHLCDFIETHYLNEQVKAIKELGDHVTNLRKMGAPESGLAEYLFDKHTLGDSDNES

CN(C)C(=N)NC(=N)N [Metformin]
ratio of amount incorporated at the one-step process to that at the disassembly-reassembly process (FTH ferritin [1]): 2.5 fold | Incorporation efficiency (wt %) (FTH ferritin [2]; pH 4, 40° C.): 0.0 wt % | Number of agent incorporated (FTH ferritin [2]; pH 4, 40° C.): 0.0 | Incorporation efficiency (wt %) (FTH ferritin [2]; pH 6, 40° C.): 0.0 wt % | Number of agent incorporated (FTH ferritin [2]; pH 6, 40° C.): 0.2 | Incorporation efficiency (wt %) (FTH ferritin [2]; pH 8, 20° C.): 1.9 wt % | Number of agent incorporated (FTH ferritin [2]; pH 8, 20° C.): 78.0 | Incorporation efficiency (wt %) (FTH ferritin [2]; pH 8, 40° C.): 0.1 wt % | Number of agent incorporated (FTH ferritin [2]; pH 8, 40° C.): 2.9 | Incorporation efficiency (wt %) (FTH ferritin [2]; pH 8, 60° C.): 1.3 wt % | Number of agent incorporated (FTH ferritin [2]; pH 8, 60° C.): 53.5 | Incorporation efficiency (wt %) (FTH ferritin [2]; pH 10, 40° C.): 0.0 wt % | Number of agent incorporated (FTH ferritin [2]; pH 10, 40° C.): 1.8 | Optimal pH in reaction (FTH ferritin [2]; pH of buffer giving the largest amount of incorporation within ferritin): 8
